For orientation: Kd means the free concentration of one partner at which half of the binding sites on the other are occupied at equilibrium, for simple one-to-one binding. Low values mean tighter binding, high ones weaker binding. Broadly, the logP is a log measure of how a compound divides between an organic and an aqueous phase.

In one data set the target is T1, hM2 subtype (Homo sapiens, UniProt P08172).
T1 construct: expressed in transfected cells; host or cells: CHO cells, stably transfected; membrane fractions
T1 sequence (P08172 1-466): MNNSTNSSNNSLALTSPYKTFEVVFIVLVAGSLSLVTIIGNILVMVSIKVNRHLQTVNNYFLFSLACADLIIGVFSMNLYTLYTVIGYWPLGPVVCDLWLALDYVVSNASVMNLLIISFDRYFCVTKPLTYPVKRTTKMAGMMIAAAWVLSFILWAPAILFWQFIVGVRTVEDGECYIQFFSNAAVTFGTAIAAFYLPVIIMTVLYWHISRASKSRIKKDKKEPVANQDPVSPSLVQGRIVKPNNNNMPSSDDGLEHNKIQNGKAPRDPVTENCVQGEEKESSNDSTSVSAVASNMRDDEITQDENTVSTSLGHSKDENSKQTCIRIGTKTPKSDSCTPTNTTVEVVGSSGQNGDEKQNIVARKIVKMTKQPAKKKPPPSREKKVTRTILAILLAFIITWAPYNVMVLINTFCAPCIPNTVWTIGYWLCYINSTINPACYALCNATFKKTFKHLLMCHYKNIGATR
The experiment in a line: Full time course [3H]-NMS dissociation kinetic assay. It counts as binding. The settings on record: versus control, concentration 0.3 μM. The protocol:
(§1) All tested compounds were purchased from Merck KGaA (Darmstadt, Germany). The radioligand binding experiments were performed with membranes from Chinese Hamster Ovary (CHO) cells stably transfected with the five cloned human muscarinic receptor subtypes (hM1-5). Membrane fractions were prepared according to the protocol, which have been previously described; membranes were stored at −80 °C until use. Nonspecific binding was defined by the radioactivity bound in the presence of 10 µM atropine.
Dissociation binding assays were conducted in assay buffer at room temperature as above described. Membranes were preincubated with 2 nM [^3H]-NMS for 60 min at room temperature (mix membrane). […] Nonspecific binding was measured in separately prepared tubes containing 100 µL of mix membrane plus atropine 10 µM. […]
Radioligand dissociation rates in absence or in presence of the allosteric modulator were analyzed by non linear regression according to the equation for mono-exponential decay using GraphPad Prism 5.02.
(§2) All the results are expressed as means ± SEM obtained from 3-4 independent experiments each one performed in duplicate.

Another data set concerns the target T2, hM3 muscarinic receptor (Homo sapiens, UniProt P20309).
T2 construct: expressed in transfected cells; host or cells: CHO cells, stably transfected; membrane fractions
Put plainly: Equilibrium inhibition binding with [3H]-NMS, CHO cell membranes. The conditions noted are these: [3H]-NMS 0.2 nM, mean ± SEM of 3-4 experiments, read-out: pKi hM3 (converted). The protocol: as §1
(§3) Aliquots of membranes (25–70 µg/mL) were added and incubated for 2 h at room temperature, filtered through UniFilter GF/B plates (PerkinElmer Life and Analytical Science, Monza, Italy) using a FilterMate cell harvester (PerkinElmer Life and Analytical Science, Monza, Italy). The filters were washed several times with ice-cold MilliQ water. Then, the plates were counted in a β-counter (TopCount NXT microplate scintillation counter, PerkinElmer Life and Analytical Science, Monza, Italy).
(§4) Data points from radioligand inhibition binding curve were fitted to models using nonlinear regression equation to determine inhibitor potency (IC50) estimates, which were then converted to Ki values as appropriate.
as §2

The target in data set [1] is T3, [3H]-NMS-occupied muscarinic hM1 subtype (Homo sapiens, UniProt P11229).
T3 sequence (P11229 1-460): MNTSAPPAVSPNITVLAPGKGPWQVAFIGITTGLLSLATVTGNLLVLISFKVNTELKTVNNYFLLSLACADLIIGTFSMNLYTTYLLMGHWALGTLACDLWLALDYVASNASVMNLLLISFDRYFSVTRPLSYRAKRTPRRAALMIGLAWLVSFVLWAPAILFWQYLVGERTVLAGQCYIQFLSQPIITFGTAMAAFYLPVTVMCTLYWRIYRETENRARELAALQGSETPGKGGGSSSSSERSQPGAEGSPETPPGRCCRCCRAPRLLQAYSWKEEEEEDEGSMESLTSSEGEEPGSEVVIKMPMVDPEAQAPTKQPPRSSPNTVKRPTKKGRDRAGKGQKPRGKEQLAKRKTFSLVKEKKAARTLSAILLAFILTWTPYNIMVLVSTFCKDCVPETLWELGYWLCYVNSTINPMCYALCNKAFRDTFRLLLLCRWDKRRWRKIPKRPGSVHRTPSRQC
The experiment in a line: biochemical. Here is the method:
as §1
Off-rate assays were performed as described elsewhere to estimate the affinity of the ligands for the [^3H]-NMS-occupied receptor (log Kocc). Briefly, a high concentration of membranes (about 0.1 mg/mL) was incubated with a high concentration of [^3H]-NMS (2 nM) for 60 min at room temperature (mix membrane). Next, 100 µL aliquots were distributed into polypropylene tubes that were empty or in a final volume of 1 mL binding buffer with 1 µM atropine alone and in the presence of a range of concentrations of tested compound (1 nM–0.1 mM).
The effect on the radioligand dissociation of each tested ligand was determined at 0 min and at one time point, which was chosen to be ca 2.5 dissociation half-lives of [^3H]-NMS alone from each subtype receptors. Later (80 min for hM1, 20 min for hM2 and 70 min for hM5), the samples were filtered and counted as previously reported. Non specific binding was measured as previously reported.
as §2

The conditions of data set [2]: ref DrugBank [16]; cited from earlier work.
For data set [3], the target named is five human muscarinic receptors subtypes (hM1–hM5). The experiment in a line: Equilibrium binding, summary statements over the five subtypes. Here is the method:
as §1, §3, §4, §2

Structures are written as SMILES.

T2 sequence (P20309 whole entry): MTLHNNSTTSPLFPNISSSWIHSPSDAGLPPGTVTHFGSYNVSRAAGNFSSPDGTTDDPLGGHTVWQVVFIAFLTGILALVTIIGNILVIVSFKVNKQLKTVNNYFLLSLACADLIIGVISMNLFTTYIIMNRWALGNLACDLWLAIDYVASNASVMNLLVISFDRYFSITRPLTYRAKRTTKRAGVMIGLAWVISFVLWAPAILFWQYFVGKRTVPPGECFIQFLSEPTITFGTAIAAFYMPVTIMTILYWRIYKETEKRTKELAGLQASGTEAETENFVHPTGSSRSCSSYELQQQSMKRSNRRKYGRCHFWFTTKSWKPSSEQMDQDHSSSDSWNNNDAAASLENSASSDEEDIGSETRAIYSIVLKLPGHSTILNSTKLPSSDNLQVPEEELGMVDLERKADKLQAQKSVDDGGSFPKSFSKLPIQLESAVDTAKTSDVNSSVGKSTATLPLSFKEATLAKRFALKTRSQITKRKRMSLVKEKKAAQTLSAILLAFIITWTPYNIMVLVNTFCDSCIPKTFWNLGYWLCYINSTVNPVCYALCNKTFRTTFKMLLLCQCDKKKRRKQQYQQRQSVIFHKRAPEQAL

For `Cc1cc(N)c2ccccc2[n+]1CCCCCCCCCC[n+]1c(C)cc(N)c2ccccc21` [dequalinium], on hM2 subtype, the t1/2 reduction came to 17.3 fold. For the same compound, on hM3 muscarinic receptor, the Ki is 170 nM. The compound further gave a Kd in data set [1] of 204 nM. Also, in data set [2], the logP is on record as 0.2. In data set [3], the “pKi values (muscarinic subtypes overall)” value is reported as “greater than 7.0”.

The record behind these values is article PMC7503225, “Repositioning Dequalinium as Potent Muscarinic Allosteric Ligand by Combining Virtual Screening Campaigns and Experimental Binding Assays” (International Journal of Molecular Sciences, 2020).
